Results: patent US20040039053A1, “Use of(-) (3-halomethylphenoxy) (4-halophenyl) acetic acid derivatives for treatment of insulin resistance, type 2 diabetes, hyperlipidemia and hyperuricemia” (priority 2000, published 2004)
Values joined by “and” are separate entries in the source; they are usually repeats but may differ in a detail not shown here. Equal entries are not always repeated.

Experiment: Pharmacokinetic study in SD rats, chiral HPLC of plasma halofenic acids (Example 14)
Assay type: in vivo
Conditions: single oral dose of (−) halofenate 50 mg/kg
Method: Male 225-250 g SD rats were purchased from Charles River. […] A catheter was placed in the left carotid artery under sodium pentobarbital (50 mg/kg i.p.) and animals were allowed to recover for 2 days before treatment. […] The gavage volume was 5 ml/kg. Blood samples were collected at 1, 2, 4, 6, 8, 12, 24, 48, 72, 96 and 120 hours post dose. The plasma samples were analyzed for each enantiomeric acid ((−) halofenic acid and (+) halofenic acid) by a chiral specific HPLC assay, since the esters are prodrugs, which are designed to convert to their respective enantiomeric acids in vivo.

O=C(O)C(Oc1cccc(C(F)(F)F)c1)c1ccc(Cl)cc1 (single isomer, unassigned; (-)) [(−) halofenic acid, (−) 4-chlorophenyl-(3-trifluoromethylphenoxy)-acetic acid]
concentration at 96 h (male, SD, rat, plasma, oral, 50 mg/kg, individual rats 8, 11): 31.1 µg/mL | concentration at 120 h (male, SD, rat, plasma, oral, 50 mg/kg, rat 8): 20.3 µg/mL | plasma concentration at 0 hour (individual rats 8, 9, 11): BQL (BQL = Below Quantifiable Limit < 1.00 μg/mL) | plasma concentration at 1 hour (individual rats 8, 9, 11): 81.2 µg/mL and 23.7 µg/mL and 61.0 µg/mL | plasma concentration at 2 hours (individual rats 8, 9, 11): 100.1 µg/mL and 30.4 µg/mL and 87.8 µg/mL | plasma concentration at 4 hours (individual rats 8, 9, 11): 122.3 µg/mL and 36.9 µg/mL and 94.5 µg/mL | plasma concentration at 6 hours (individual rats 8, 9, 11): 128.3 µg/mL and 56.5 µg/mL and 116.3 µg/mL | plasma concentration at 8 hours (individual rats 8, 9, 11): 128.2 µg/mL and 79.0 µg/mL and 127.8 µg/mL | plasma concentration at 12 hours (individual rats 8, 9, 11): 135.3 µg/mL and 80.6 µg/mL and 104.8 µg/mL | plasma concentration at 24 hours (individual rats 8, 9, 11): 82.5 µg/mL and 73.1 µg/mL and 66.5 µg/mL | plasma concentration at 48 hours (individual rats 8, 9, 11): 56.2 µg/mL and 44.5 µg/mL and 47.1 µg/mL | plasma concentration at 72 hours (individual rats 8, 9, 11): 39.7 µg/mL and 37.4 µg/mL and 30.8 µg/mL | plasma concentration at 96 hours (individual rats 8, 11): 24.6 µg/mL
